From patent US4027039A (priority 1975, dated 1977)
“And” between values parts separate entries of the source, which are not always exact repeats. Equal entries are not always repeated. Where two headings read alike, the source gives them in different places.

Legend:
[1] = test system: Influenza, Ann Arbor virus; assay: Influenza Ann Arbor in mice, oral; schedule by table; late read day 5 (Tables 15, 25, 29, 30), 6 (18, 20, 22, 23, 26, 27, 28, 54), 7 (14, 19, 21, 24, 53, 56), 8 (16, 17, 51), 9 (11, 55); assay type: in vivo, mouse
[2] = test system: Influenza, Ann Arbor virus; assay: Influenza Ann Arbor in mice, subcutaneous; late read day 9 (Table 11), 7 (Tables 12, 14), 5 (Table 13); assay type: in vivo, mouse
Herpes virus [3] = test system: Herpes virus
Herpes virus [4] = assay: Herpes virus in chicken eggs, single dose 24 hours pre-infection; assay type: in vivo, chick embryo
Vaccinia IHD virus = assay type: in vivo, mouse
viral infections = assay: Antiviral screening in animals, general statements; settings: mouse, in vivo

In the case of `CC(C)=NNC(N)=S` [acetone, thiosemicarbazone], the “No. animals surviving after 5-7 days” value ([1]; total dose 30 pg) was 3, the Survivors ([1]; total dose 30 pg) was 1 and the “No. animals surviving after 5-7 days” value ([1]; total dose 300 pg) was 2. For the same molecule, the Survivors ([1]; total dose 300 pg) was 0, the “No. animals surviving after 5-7 days” value ([1]; total dose 3 ng) was 2 and the Survivors ([1]; total dose 3 ng) was 0. For the same molecule, the “No. animals surviving after 5-7 days” value ([1]; total dose 30 ng) was 2, the Survivors ([1]; total dose 30 ng) was 0 and the “No. animals surviving after 5-7 days” value ([1]; total dose 300 ng) was 3. For the same molecule, the Survivors ([1]; total dose 300 ng) was 0, the “No. animals surviving after 5-7 days” value ([1]; total dose 3 μg) was 5 and the Survivors ([1]; total dose 3 μg) was 0. For the same molecule, the “No. animals surviving after 5-7 days” value ([1]; total dose 30 μg) was 2, the Survivors ([1]; total dose 30 μg) was 0 and the “No. animals surviving after 5-7 days” value ([1]; total dose 300 μg) was 3. The Survivors ([1]; total dose 300 μg) was 0.

`N=C(N)NN` [aminoguanidine] was tested, and the survival ([2]; subcutaneous, only at one dose level) was 50%, the “No. animals surviving after 7 days” value ([2]; total dose 3 μg) was 6 and the Survivors ([2]; total dose 3 μg) was 2. The Survivors ([2]; total dose 30 μg) was 2, the “No. animals surviving after 7 days” value ([2]; total dose .0003 μg) was 8 and the Survivors ([2]; total dose .0003 μg) was 5. For the same molecule, the “No. animals surviving after 7 days” value ([2]; total dose .003 μg) was 8, the Survivors ([2]; total dose .003 μg) was 0 and the Survivors ([2]; total dose .03 μg) was 1. The Survivors ([2]; total dose .3 μg) was 1, the activity in words ([1]; oral) was “most active” and the treated animals survived ([1]; oral, high dose) was 50%. The “No. animals surviving after 5-7 days” value ([1]; total dose 300 pg) was 6, the Survivors ([1]; total dose 300 pg) was 1 and the Survivors ([1]; total dose 3 ng) was 1. For the same molecule, the Survivors ([1]; total dose 30 ng) was 2, the Survivors ([1]; total dose 300 ng) was 4 and the “No. animals surviving after 5-7 days” value ([1]; total dose 3 μg) was 8. The Survivors ([1]; total dose 3 μg) was 3 and the “No. animals surviving after 5-7 days” value ([1]; total dose 30 μg) was 8.

With `Cc1ccccc1NC(=S)NN=C1CCCC1` [cyclopentanone, 3-thio-4-o-tolyl-semicarbazone] the “No. animals surviving after 5-7 days” value ([1]; total dose 30 pg) was 6, the Survivors ([1]; total dose 30 pg) was 0 and the “No. animals surviving after 5-7 days” value ([1]; total dose 300 pg) was 9. The Survivors ([1]; total dose 300 pg) was 0, the “No. animals surviving after 5-7 days” value ([1]; total dose 3 ng) was 9 and the Survivors ([1]; total dose 3 ng) was 0. The “No. animals surviving after 5-7 days” value ([1]; total dose 30 ng) was 9, the “No. animals surviving after 5-7 days” value ([1]; total dose 300 ng) was 6 and the Survivors ([1]; total dose 300 ng) was 0. For the same molecule, the “No. animals surviving after 5-7 days” value ([1]; total dose 3 μg) was 6, the Survivors ([1]; total dose 3 μg) was 0 and the Survivors ([1]; total dose 30 μg) was 0. For the same molecule, the “No. animals surviving after 5-7 days” value ([1]; total dose 300 μg) was 9, the Survivors ([1]; total dose 300 μg) was 0 and the “No. animals surviving after 5-7 days” value ([1]; total dose 3 mg) was 8. It also gave a Survivors ([1]; total dose 3 mg) of 0.

With `NN` [hydrazine] the “No. animals surviving after 6-9 days” value (Herpes virus [3]; total dose .0005 μg) was 6 and 5, the “No. animals surviving after 6-9 days” value (Herpes virus [3]; total dose .005 μg) was 6 and the “No. animals surviving after 6-9 days” value (Herpes virus [3]; total dose .05 μg) was 3 and 5. The “No. animals surviving when 100% (or given fraction) of controls are dead” value (Herpes virus [3]; total dose .05 μg) was 1, the “No. animals surviving when 100% (or given fraction) of controls are dead” value (Herpes virus [3]; total dose .5 μg) was 1 and the “Deaths on day 1” value (Herpes virus [4]; 2 μg) was 3. For the same molecule, the “Deaths on day 2” value (Herpes virus [4]; 2 μg) was 4, the “Deaths on day 3” value (Herpes virus [4]; 2 μg) was 1 and the “Deaths on day 4” value (Herpes virus [4]; 2 μg) was 1. The “No. dying 5-22 day” value (Herpes virus [4]; 2 μg) was 0, the No. hatched (Herpes virus [4]; 2 μg) was 1 and the “No. living longer than controls” value (Herpes virus [4]; 2 μg) was 1. For the same molecule, the “Total deaths, 4th day” value (Herpes virus [4]; 2 μg) was 9, the “Deaths on day 1” value (Herpes virus [4]; 20 μg) was 3 and the “Deaths on day 3” value (Herpes virus [4]; 20 μg) was 4. The “No. dying 5-22 day” value (Herpes virus [4]; 20 μg) was 0, the No. hatched (Herpes virus [4]; 20 μg) was 1 and the “No. living longer than controls” value (Herpes virus [4]; 20 μg) was 1. For the same molecule, the “Total deaths, 4th day” value (Herpes virus [4]; 20 μg) was 11, the “Deaths on day 3” value (Herpes virus [4]; .00005 μg) was 5 and the “No. dying 5-22 day” value (Herpes virus [4]; .00005 μg) was 0. The “No. living longer than controls” value (Herpes virus [4]; .00005 μg) was 1, the “Total deaths, 4th day” value (Herpes virus [4]; .00005 μg) was 9 and the “Deaths on day 2” value (Herpes virus [4]; .0005 μg) was 6. The “Deaths on day 3” value (Herpes virus [4]; .0005 μg) was 4, the “No. dying 5-22 day” value (Herpes virus [4]; .0005 μg) was 0 and the “No. living longer than controls” value (Herpes virus [4]; .0005 μg) was 0. The “Total deaths, 4th day” value (Herpes virus [4]; .0005 μg) was 12, the “Deaths on day 2” value (Herpes virus [4]; .005 μg) was 7 and the “Deaths on day 3” value (Herpes virus [4]; .005 μg) was 4. For the same molecule, the “No. dying 5-22 day” value (Herpes virus [4]; .005 μg) was 0, the “No. living longer than controls” value (Herpes virus [4]; .005 μg) was 0 and the “Total deaths, 4th day” value (Herpes virus [4]; .005 μg) was 11. For the same molecule, the “Deaths on day 2” value (Herpes virus [4]; .05 μg) was 5, the “Deaths on day 3” value (Herpes virus [4]; .05 μg) was 3 and the “No. dying 5-22 day” value (Herpes virus [4]; .05 μg) was 0. For the same molecule, the “No. living longer than controls” value (Herpes virus [4]; .05 μg) was 0, the “Total deaths, 4th day” value (Herpes virus [4]; .05 μg) was 10 and the “Deaths on day 3” value (Herpes virus [4]; .5 μg) was 5. The “Deaths on day 4” value (Herpes virus [4]; .5 μg) was 1, the “No. dying 5-22 day” value (Herpes virus [4]; .5 μg) was 0 and the “No. living longer than controls” value (Herpes virus [4]; .5 μg) was 0. The “Total deaths, 4th day” value (Herpes virus [4]; .5 μg) was 10, the “Total no. living longer than controls” value (Herpes virus [4]; all doses) was 3 and the “Statistical Significance of Tail Lesions” value (Vaccinia IHD virus; 10 ng, day 6) was “< .01”. For the same molecule, the “Statistical Significance of Tail Lesions” value (Vaccinia IHD virus; 10 ng, day 7) was “< .05”, the “Statistical Significance of Tail Lesions” value (Vaccinia IHD virus; 10 ng, day 11) was “< .01” and the “Statistical Significance of Tail Lesions” value (Vaccinia IHD virus; 10 ng, day 12) was “< .01”. The “Statistical Significance of Tail Lesions” value (Vaccinia IHD virus; 10 ng, day 14) was “< .01”, the “Statistical Significance of Tail Lesions” value (Vaccinia IHD virus; 10 ng, day 17) was “< .01” and the “Statistical Significance of Tail Lesions” value (Vaccinia IHD virus; 10 ng, day 21) was “< .01”. The “Statistical Significance of Tail Lesions” value (Vaccinia IHD virus; 1 μg, day 10) was “< .01”, the “Statistical Significance of Tail Lesions” value (Vaccinia IHD virus; 1 μg, day 11) was “< .01” and the “Statistical Significance of Tail Lesions” value (Vaccinia IHD virus; 1 μg, day 12) was “< .01”. The “Statistical Significance of Tail Lesions” value (Vaccinia IHD virus; 1 μg, day 14) was “< .01”, the “Statistical Significance of Tail Lesions” value (Vaccinia IHD virus; 1 μg, day 17) was “< .01” and the “Statistical Significance of Tail Lesions” value (Vaccinia IHD virus; 1 μg, day 21) was “< .01”. The “Statistical Significance of Tail Lesions” value (Vaccinia IHD virus; 10 [μg], day 10) was “< .05”, the “Statistical Significance of Tail Lesions” value (Vaccinia IHD virus; 10 [μg], day 11) was “< .01” and the “Statistical Significance of Tail Lesions” value (Vaccinia IHD virus; 10 [μg], day 12) was “< .01”. For the same molecule, the “Statistical Significance of Tail Lesions” value (Vaccinia IHD virus; 10 [μg], day 14) was “< .01”, the “Statistical Significance of Tail Lesions” value (Vaccinia IHD virus; 10 [μg], day 17) was “< .01” and the “Statistical Significance of Tail Lesions” value (Vaccinia IHD virus; 10 [μg], day 21) was “< .01”. For the same molecule, the “Statistical Significance of Tail Lesions” value (Vaccinia IHD virus; 100 [ng], day 5) was “< .05”, the “Statistical Significance of Tail Lesions” value (Vaccinia IHD virus; 100 [ng], day 6) was “< .01” and the “Statistical Significance of Tail Lesions” value (Vaccinia IHD virus; 100 [ng], day 7) was “< .01”. For the same molecule, the “Statistical Significance of Tail Lesions” value (Vaccinia IHD virus; 100 [ng], day 8) was “< .05”, the “Statistical Significance of Tail Lesions” value (Vaccinia IHD virus; 100 [ng], day 10) was “< .01” and the “Statistical Significance of Tail Lesions” value (Vaccinia IHD virus; 100 [ng], day 11) was “< .01”. For the same molecule, the “Statistical Significance of Tail Lesions” value (Vaccinia IHD virus; 100 [ng], day 12) was “< .01”, the “Statistical Significance of Tail Lesions” value (Vaccinia IHD virus; 100 [ng], day 14) was “< .01” and the “Statistical Significance of Tail Lesions” value (Vaccinia IHD virus; 100 [ng], day 17) was “< .01”. The “Statistical Significance of Tail Lesions” value (Vaccinia IHD virus; 100 [ng], day 21) was “< .01” and the activity in words ([1]; oral) was “much less significant activity”.

`O=C(C=NO)c1ccccc1` [phenylglyoxaloxime] was tested, and the activity in words (viral infections) was “active”.

In the case of N-hydroxyphthalamide, the activity in words (viral infections) was “active”.
